Measured values as given in US20040023803A1, “Method for producing a solid herbicide formulation” (priority 2000, published 2004).

Assay: Storage stability test of solid formulations (14 days at 54° C., CIPAC MT 46; active ingredient and AMTT content by quantitative HPLC)
Format: physicochemical
Conditions: for Preparation Concentration % by weight: zero value before storage; for Storage 14 days, 54° C. active ingredient content (rel.): relative to zero value
Procedure: The solid formulations prepared by the process according to the invention are storage-stable. In accordance with a storage test laid down by the authorization authorities, they are stored for 14 days at 54° C. […] The active ingredient content and the AMTT content of the formulations were each determined by means of quantitative HPLC. […] The samples were then analyzed and compared with the comparative value at the beginning of the storage (zero value). The active ingredient content is shown in each case as relative quantity based on the zero value (as a percentage). The storage experiments were carried out following the method CIPAC MT 46. The shelf life of a product is estimated by short-term storage at elevated temperature.

[1] = Table 2, Example 1 formulation, pH of the suspension 5.1
[2] = Table 2, Example 1 formulation, pH of the suspension 6
[3] = Table 2, Example 1 formulation, pH of the suspension 7
[4] = Table 2, Example 1 formulation, pH of the suspension 8
[5] = Table 2, Example 1 formulation, pH of the suspension 9
[6] = Table 3 (headed Example 3), tritosulfuron + flucarbazone-sodium formulation, pH of the suspension 6.5
[7] = Table 3 (headed Example 3), tritosulfuron + flucarbazone-sodium formulation, pH of the suspension 7.0
[8] = Table 4 (headed Example 4), tritosulfuron + dicamba formulation, pH of the suspension 6
[9] = Table 4 (headed Example 4), tritosulfuron + dicamba formulation, pH of the suspension 7
[10] = Table 4 (headed Example 4), tritosulfuron + dicamba formulation, pH of the suspension 8
[11] = Table 4 (headed Example 4), tritosulfuron + dicamba formulation, pH of the suspension 9

SMILES | Preparation Concentration % by weight [1] [% by weight] | Preparation Concentration % by weight [2] [% by weight] | Preparation Concentration % by weight [3] [% by weight] | Preparation Concentration % by weight [4] [% by weight] | Preparation Concentration % by weight [5] [% by weight] | Preparation Concentration % by weight [6] [% by weight] | Preparation Concentration % by weight [7] [% by weight] | Preparation Concentration % by weight [8] [% by weight] | Preparation Concentration % by weight [9] [% by weight] | Preparation Concentration % by weight [10] [% by weight] | Preparation Concentration % by weight [11] [% by weight] | Storage 14 days, 54° C. active ingredient content (rel.) [8] | Storage 14 days, 54° C. active ingredient content (rel.) [9] | Storage 14 days, 54° C. active ingredient content (rel.) [10] | Storage 14 days, 54° C. active ingredient content (rel.) [11] | Storage 14 days, 54° C. active ingredient content (rel.) [6] | Storage 14 days, 54° C. active ingredient content (rel.) [7] | also measured
COc1nc(N)nc(C(F)(F)F)n1 [AMTT, 2-amino-4-methoxy-6-trifluoromethyltriazine] | 0.03 | 0.03 | 0.033 | 0.026 | 0.035 | 0.025 | 0.019 | 0.009 | 0.007 | 0.007 | 0.006 |  |  |  |  |  |  | Storage 14 days, 54° C. % by weight (AMTT content) [1]: 0.249 % by weight; Storage 14 days, 54° C. % by weight (AMTT content) [2]: 0.250 % by weight; Storage 14 days, 54° C. % by weight (AMTT content) [3]: 0.178 % by weight; Storage 14 days, 54° C. % by weight (AMTT content) [4]: 0.056 % by weight; Storage 14 days, 54° C. % by weight (AMTT content) [5]: 0.234 % by weight; Storage 14 days, 54° C. % by weight (AMTT content) [6]: 0.164 % by weight; Storage 14 days, 54° C. % by weight (AMTT content) [7]: 0.065 % by weight; Storage 14 days, 54° C. % by weight (AMTT content) [8]: 0.470 % by weight; Storage 14 days, 54° C. % by weight (AMTT content) [9]: 0.011 % by weight; Storage 14 days, 54° C. % by weight (AMTT content) [10]: 0.007 % by weight; Storage 14 days, 54° C. % by weight (AMTT content) [11]: 0.007 % by weight
COc1c(Cl)ccc(Cl)c1C(=O)O [dicamba] |  |  |  |  |  |  |  | 60.4 | 58.7 | 58.5 | 58.0 | 100 (rel.) % (rel.) | 100 (rel.) % (rel.) | 100 (rel.) % (rel.) | 101.9 (rel.) % (rel.) |  |  | 
COc1nn(C(=O)[N-]S(=O)(=O)c2ccccc2OC(F)(F)F)c(=O)n1C.[Na+] [flucarbazone-sodium] |  |  |  |  |  | 24.1 | 24.3 |  |  |  |  |  |  |  |  | 98.8 (rel.) % (rel.) | 99.5 (rel.) % (rel.) | 
COc1nc(NC(=O)NS(=O)(=O)c2ccccc2C(F)(F)F)nc(C(F)(F)F)n1 [tritosulfuron, N[[[4-methoxy-6-(trifluoromethyl)-1,3,5-triazin-2-yl]amino]carbonyl]-2-(trifluoromethyl)benzenesulfonamide] | 74.2 | 72.3 | 71.7 | 67.5 | 72.4 | 40.5 | 41.1 | 11.9 | 11.9 | 11.3 | 10.4 | 91.3 (rel.) % (rel.) | 99.7 (rel.) % (rel.) | 98.8 (rel.) % (rel.) | 102.6 (rel.) % (rel.) | 98.8 (rel.) % (rel.) | 100 (rel.) % (rel.) | Storage 14 days, 54° C. active ingredient content (rel.) [1]: 99.3 (rel.) % (rel.); Storage 14 days, 54° C. active ingredient content (rel.) [2]: 99.9 (rel.) % (rel.); Storage 14 days, 54° C. active ingredient content (rel.) [3]: 100.8 (rel.) % (rel.); Storage 14 days, 54° C. active ingredient content (rel.) [4]: 100.5 (rel.) % (rel.); Storage 14 days, 54° C. active ingredient content (rel.) [5]: 97.7 (rel.) % (rel.)
